Measured values as given in US9120749B2, “Quinoline derivatives and MELK inhibitors containing the same” (ONCOTHERAPY SCIENCE, INC., priority 2010, dated 2015).

Legend:
BT-549 cells = assay: Cell-based assay: anti-proliferative activity, Cell Counting Kit-8, 72 hours (BT-549); details: Homo sapiens, BT-549, 72 h, BT549 cells, MELK-expressing; Cell Counting Kit-8 at 72 hours
Summary of the method: (§1)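 IC50 values come from CCK-8 growth measurements taken 72 hours post-treatment of plated cells with test compounds. Expression of MELK across the panel was assessed through immunoblot of unfractionated lysates.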

T47D cells = assay: Cell-based assay: anti-proliferative activity, Cell Counting Kit-8, 72 hours (T47D); details: Homo sapiens, T47D, 72 h, MELK-expressing, Cell Counting Kit-8 at 72 hours
Summary of the method: as §1

MELK = MELK (Homo sapiens, UniProt Q14680); assay: Kinase assay: MELK activity, phosphorylation of FITC-labeled histone H3 peptide measured by IMAP fluorescence polarization; type: biochemical; details: 50 micro-M ATP, FITC-labeled histone H3 peptide substrate, IMAP fluorescence polarization; read-out: IC50 (μM) (kinase assay)
MELK, sequence (Q14680 whole entry, looked up): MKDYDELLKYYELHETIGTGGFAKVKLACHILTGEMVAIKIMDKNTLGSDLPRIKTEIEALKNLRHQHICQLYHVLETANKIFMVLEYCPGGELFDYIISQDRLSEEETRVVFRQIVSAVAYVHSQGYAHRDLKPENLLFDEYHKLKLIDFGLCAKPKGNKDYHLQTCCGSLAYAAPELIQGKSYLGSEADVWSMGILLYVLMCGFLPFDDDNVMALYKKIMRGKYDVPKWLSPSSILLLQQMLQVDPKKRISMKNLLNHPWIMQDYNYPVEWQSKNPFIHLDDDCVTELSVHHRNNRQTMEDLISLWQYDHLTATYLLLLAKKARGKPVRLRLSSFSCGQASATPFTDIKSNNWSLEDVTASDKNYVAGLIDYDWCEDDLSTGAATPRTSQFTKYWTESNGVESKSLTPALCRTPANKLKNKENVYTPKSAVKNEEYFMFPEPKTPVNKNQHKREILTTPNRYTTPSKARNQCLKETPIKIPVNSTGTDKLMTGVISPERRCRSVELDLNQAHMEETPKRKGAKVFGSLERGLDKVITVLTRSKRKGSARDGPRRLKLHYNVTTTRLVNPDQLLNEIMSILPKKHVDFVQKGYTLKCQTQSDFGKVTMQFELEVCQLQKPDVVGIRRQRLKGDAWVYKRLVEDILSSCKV
Summary of the method: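 Substrate is FITC-labeled histone H3 peptide. Compounds come from a 12.5 mM DMSO stock, diluted so assay DMSO is 1%. The stop step adds threefold-volume progressive binding solution, followed by 0.5 h at room temperature and an FP read.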

A549 cells = assay: Cell-based assay: anti-proliferative activity, Cell Counting Kit-8, 72 hours (A549); details: Homo sapiens, A549, 72 h, MELK-expressing, Cell Counting Kit-8 at 72 hours
Summary of the method: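 Cell Counting Kit-8 read-out of A549 growth after 72 hours of inhibitor exposure, cells plated in 96-well format. Values reported as IC50.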

HT-1197 cells = assay: Cell-based assay: anti-proliferative activity, Cell Counting Kit-8, 72 hours (HT-1197, negative control without MELK expression); details: Homo sapiens, HT1197, 72 h, HT1197 cells, no MELK expression (negative control); Cell Counting Kit-8 at 72 hours
Summary of the method: as §1

`CC(C1CCN(c2c(C(=O)C3CC3)cnc3ccc(-c4cc(F)c(O)c(Cl)c4)cc23)CC1)N(C)C` (stereo not drawn) [Example 269, [6-(3-Chloro-5-fluoro-4-hydroxyphenyl)-4-{4-[1-(dimethylamino)ethyl]piperidin-1-yl}quinolin-3-yl](cyclopropyl)methanone] was tested, and the IC50 (BT-549 cells) was 0.5 µM, the IC50 (T47D cells) was 0.22 µM and the IC50 (MELK) was 0.0037 µM. The IC50 (A549 cells) was 0.44 µM and the IC50 (HT-1197 cells) was 1.3 µM.

Molecule `CN1CCC(CNc2c(C(=O)C3CC3)cnc3ccc(-c4cc(F)c(O)c(Cl)c4)cc23)CC1` [Example 270, {6-(3-Chloro-5-fluoro-4-hydroxyphenyl)-4-[(1-methylpiperidin-4-yl)methylamino]quinolin-3-yl}(cyclopropyl)methanone] has an IC50 (BT-549 cells) of 1.1 µM, an IC50 (T47D cells) of 0.51 µM and an IC50 (MELK) of 0.021 µM. For the same molecule, the IC50 (A549 cells) was 0.69 µM and the IC50 (HT-1197 cells) was 2.9 µM.

With `COc1cc(-c2ccc3ncc(C(=O)C4CC4)c(N4CCC(CN(C)C)CC4)c3c2)cc(Cl)c1O` [Example 276, [6-(3-Chloro-4-hydroxy-5-methoxyphenyl)-4-{4-[(dimethylamino)methyl]piperidin-1-yl}quinolin-3-yl](cyclopropyl)methanone] the IC50 (BT-549 cells) was 0.58 µM, the IC50 (T47D cells) was 0.16 µM and the IC50 (MELK) was 0.0008 µM. For the same molecule, the IC50 (A549 cells) was 0.21 µM and the IC50 (HT-1197 cells) was 1.8 µM.

With `CN(C)CC1CCN(c2c(C(=O)C3CC3)cnc3ccc(-c4ccc(O)c(Cl)c4)cc23)CC1` [Example 279, [6-(3-Chloro-4-hydroxyphenyl)-4-{4-[(dimethylamino)methyl]piperidin-1-yl}quinolin-3-yl](cyclopropyl)methanone] the IC50 (BT-549 cells) was 0.86 µM, the IC50 (T47D cells) was 0.21 µM and the IC50 (MELK) was 0.0046 µM. The IC50 (A549 cells) was 0.3 µM and the IC50 (HT-1197 cells) was 6.7 µM.

With `COc1cc(-c2ccc3ncc(C(=O)C4CC4)c(N4CCC(CN5CCCC5)CC4)c3c2)cc(Cl)c1O` [Example 280, {6-(3-Chloro-4-hydroxy-5-methoxyphenyl)-4-[4-(pyrrolidin-1-ylmethyl)piperidin-1-yl]quinolin-3-yl}(cyclopropyl)methanone] the IC50 (BT-549 cells) was 0.71 µM, the IC50 (T47D cells) was 0.25 µM and the IC50 (MELK) was 0.0017 µM. It also gave an IC50 (A549 cells) of 0.2 µM and an IC50 (HT-1197 cells) of 2.9 µM.

`O=C(c1cnc2ccc(-c3cc(F)c(O)c(Cl)c3)cc2c1N1CCC(CN2CCCC2)CC1)C1CC1` [Example 283, {6-(3-Chloro-5-fluoro-4-hydroxyphenyl)-4-[4-(pyrrolidin-1-ylmethyl)piperidin-1-yl]quinolin-3-yl}(cyclopropyl)methanone] showed an IC50 (BT-549 cells) of 0.72 µM, an IC50 (T47D cells) of 0.35 µM and an IC50 (MELK) of 0.0029 µM. It also gave an IC50 (A549 cells) of 0.54 µM and an IC50 (HT-1197 cells) of 3 µM.

Molecule `COc1cc(-c2cc3c(N[C@H]4CC[C@H](N)CC4)c(C(=O)C4CC4)cnc3cc2F)cc(Cl)c1O` [Example 284, {4-[trans-4-aminocyclohexylamino]-6-(3-chloro-4-hydroxy-5-methoxyphenyl)-7-fluoroquinolin-3-yl}(cyclopropyl)methanone] has an IC50 (BT-549 cells) of 1.7 µM, an IC50 (T47D cells) of 0.62 µM and an IC50 (MELK) of 0.013 µM. For the same molecule, the IC50 (A549 cells) was 0.49 µM and the IC50 (HT-1197 cells) was 2.2 µM.

For `CN(C)[C@H]1CC[C@H](Nc2c(C(=O)C3CC3)cnc3cc(F)c(-c4cc(F)c(O)c(F)c4)cc23)CC1` [Example 294, Cyclopropyl{6-(3,5-difluoro-4-hydroxyphenyl)-4-[trans-4-(dimethylamino)cyclohexylamino]-7-fluoroquinolin-3-yl}methanone], the IC50 (BT-549 cells) was 0.55 µM, the IC50 (T47D cells) was 0.68 µM and the IC50 (MELK) was 0.042 µM. The IC50 (A549 cells) was 0.43 µM and the IC50 (HT-1197 cells) was 1.5 µM.

Molecule `CN(C)[C@H]1CC[C@H](Nc2c(C(=O)C3CC3)cnc3cc(F)c(-c4cc(F)c(O)c(Cl)c4)cc23)CC1` [Example 295, {6-(3-Chloro-5-fluoro-4-hydroxyphenyl)-4-[trans-4-(dimethylamino)cyclohexylamino]-7-fluoroquinolin-3-yl}(cyclopropyl)methanone] has an IC50 (BT-549 cells) of 0.39 µM, an IC50 (T47D cells) of 0.42 µM and an IC50 (MELK) of 0.027 µM. For the same molecule, the IC50 (A549 cells) was 0.31 µM and the IC50 (HT-1197 cells) was 1.2 µM.

In the case of `CCN(CC)C1CCC(Nc2c(C(C)=O)cnc3ccc(-c4cc(Cl)c(O)c(OC)c4)cc23)CC1` (stereo not drawn) [Example 303, 1-{6-(3-Chloro-4-hydroxy-5-methoxyphenyl)-4-[4-(diethylamino)cyclohexylamino]quinolin-3-yl}ethanone], the IC50 (BT-549 cells) is reported as 1.7 µM, the IC50 (T47D cells) is reported as 0.39 µM and the IC50 (MELK) is reported as 0.0061 µM. The IC50 (A549 cells) was 0.35 µM and the IC50 (HT-1197 cells) was 7.4 µM.

`COc1cc(-c2ccc3ncc(C(C)=O)c(N4CCC(CN(C)C)CC4)c3c2)cc(Cl)c1O` [Example 305, 1-[6-(3-chloro-4-hydroxy-5-methoxyphenyl)-4-{4-[(dimethylamino)methyl]piperidin-1-yl}quinolin-3-yl]ethanone] was tested, and the IC50 (BT-549 cells) was 0.33 µM, the IC50 (T47D cells) was 0.21 µM and the IC50 (MELK) was 0.0022 µM. For the same molecule, the IC50 (A549 cells) was 0.14 µM and the IC50 (HT-1197 cells) was 3.6 µM.

In the case of `COc1cc(-c2ccc3ncc(C(=O)C4CC4)c(N4CCC(CN5CCCC5)CC4)c3c2)cc(F)c1O` [Example 307, Cyclopropyl{6-(3-fluoro-4-hydroxy-5-methoxyphenyl)-4-[4-(pyrrolidin-1-ylmethyl)piperidin-1-yl]quinolin-3-yl}methanone], the IC50 (BT-549 cells) is reported as 1.2 µM, the IC50 (T47D cells) is reported as 0.79 µM and the IC50 (MELK) is reported as 0.0041 µM. It also gave an IC50 (A549 cells) of 0.53 µM and an IC50 (HT-1197 cells) of 3 µM.

For `COc1cc(-c2ccc3ncc(C(=O)C4CC4)c(NC45CC6CC(CC(N)(C6)C4)C5)c3c2)cc(Cl)c1O` [Example 309, {6-(3-Chloro-4-hydroxy-5-methoxyphenyl)-4-[(3-amino)adamantylamino]quinolin-3-yl}(cyclopropyl)methanone], the IC50 (BT-549 cells) was 0.49 µM, the IC50 (T47D cells) was 0.32 µM and the IC50 (MELK) was 0.0087 µM. The IC50 (A549 cells) was 0.28 µM and the IC50 (HT-1197 cells) was 0.5 µM.

`CCN(CC)[C@H]1CC[C@@H](Nc2c(C(=O)C3CC3)cnc3ccc(-c4cc(Cl)c(O)c(OC)c4)cc23)CC1` [Example 311, {6-(3-Chloro-4-hydroxy-5-methoxyphenyl)-4-[cis-4-(diethylamino)cyclohexylamino]quinolin-3-yl}(cyclopropyl)methanone] gave an IC50 (BT-549 cells) of 1.5 µM, an IC50 (T47D cells) of 0.51 µM and an IC50 (MELK) of 0.0032 µM. For the same molecule, the IC50 (A549 cells) was 0.21 µM and the IC50 (HT-1197 cells) was 7.6 µM.

Work on `O=C(c1cnc2ccc(-c3ccc(O)c(OC(F)(F)F)c3)cc2c1N1CCC(CN2CCCC2)CC1)C1CC1` [Example 313, Cyclopropyl{6-[4-hydroxy-3-(trifluoromethoxy)phenyl]-4-[4-(pyrrolidin-1-ylmethyl]piperidin-1-yl}quinolin-3-yl)methanone] yielded an IC50 (BT-549 cells) of 1.3 µM, an IC50 (T47D cells) of 0.67 µM and an IC50 (MELK) of 0.012 µM. The IC50 (A549 cells) was 0.8 µM and the IC50 (HT-1197 cells) was 3.2 µM.

`CCN(CC)[C@H]1CC[C@H](Nc2c(C(=O)C3CC3)cnc3ccc(-c4cc(Cl)c(O)c(OC)c4)cc23)CC1` [Example 314, {6-(3-Chloro-4-hydroxy-5-methoxyphenyl)-4-[trans-4-(diethylamino)cyclohexylamino]quinolin-3-yl}(cyclopropyl)methanone] was tested, and the IC50 (BT-549 cells) was 0.73 µM, the IC50 (T47D cells) was 0.16 µM and the IC50 (MELK) was 0.0031 µM. It also gave an IC50 (A549 cells) of 0.22 µM and an IC50 (HT-1197 cells) of 4.3 µM.

`COc1cc(-c2ccc3ncc(C(=O)C4CC4)c(NC[C@H]4CC[C@H](N(C)C)CC4)c3c2)cc(Cl)c1O` [Example 315] was tested, and the IC50 (BT-549 cells) was 1.4 µM, the IC50 (T47D cells) was 0.64 µM and the IC50 (MELK) was 0.0043 µM. For the same molecule, the IC50 (A549 cells) was 0.3 µM and the IC50 (HT-1197 cells) was 3 µM.

With `COc1cc(-c2ccc3ncc(C(=O)C4CC4)c(N[C@H]4CC[C@H](CN(C)C)CC4)c3c2)cc(Cl)c1O` [Example 316] the IC50 (BT-549 cells) was 1.3 µM, the IC50 (T47D cells) was 0.5 µM and the IC50 (MELK) was 0.011 µM. For the same molecule, the IC50 (A549 cells) was 0.32 µM and the IC50 (HT-1197 cells) was 6.3 µM.
